Data as given in paper PMC4755933 (Journal of medicinal chemistry, 2015).

Legend:
bromodomain of TRIM24 = target: T1, bromodomain of TRIM24 (Homo sapiens, UniProt O15164); assay: AlphaScreen biochemical bromodomain-H3K23; assay type: binding; settings: from TRIM24 IC50
T1 sequence (O15164 899-1004 limits assumed): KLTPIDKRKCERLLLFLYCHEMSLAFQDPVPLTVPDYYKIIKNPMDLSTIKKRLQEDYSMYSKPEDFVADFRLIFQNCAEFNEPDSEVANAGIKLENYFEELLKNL

TRIM24(PHD-bromo) = target: T2, TRIM24(PHD-bromo) (Homo sapiens, UniProt O15164); settings: TRIM24 AlphaLisa assay in HeLa cells, in words
T2 sequence (O15164 824-1006 limits assumed): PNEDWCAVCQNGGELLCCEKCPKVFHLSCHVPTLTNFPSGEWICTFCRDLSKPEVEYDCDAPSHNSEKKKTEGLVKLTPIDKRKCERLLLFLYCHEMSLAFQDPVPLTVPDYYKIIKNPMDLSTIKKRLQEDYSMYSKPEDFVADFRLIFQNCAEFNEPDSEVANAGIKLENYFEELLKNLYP

[1] = CACO-2 permeability assay
panel of 32 bromodomains = settings: 1 μM concentration

Structure (SMILES) | ligand efficiency (LE) (bromodomain of TRIM24) | other results
Cc1nc(-c2ccc3c(c2)CC(=O)N3C)cs1 [Compound 1] | 0.41 | 
Cn1c(=O)n(C)c2cc(NS(=O)(=O)c3ccc(C4CCCCC4)cc3)ccc21 [Compound 5e, 4-cyclohexyl-N-(1,3-dimethyl-2-oxo-2,3-dihydro-1H-1,3-benzodiazol-5-yl)benzene-1-sulfonamide] | 0.28 | 
COc1ccc(Oc2cc3c(cc2NS(=O)(=O)c2ccccc2)n(C)c(=O)n3C)cc1 [Compound 5g] | 0.26 | 
Cn1cnc(S(=O)(=O)Nc2cc3c(cc2Oc2ccc(OCc4ccccc4)cc2)n(C)c(=O)n3C)c1 [Compound 6, N-{6-[4-(benzyloxy)phenoxy]-1,3-dimethyl-2-oxo-2,3-dihydro-1H-1,3-benzodiazol-5-yl}-1-methyl-1H-imidazole-4-sulfonamide] |  | cellular activity (TRIM24(PHD-bromo)): no cellular activity
CC(C)COc1cccc(Oc2ccc3c(c2)n(C)c(=O)n3C)c1 [Compound 7j, 1,3-dimethyl-5-[3-(2-methylpropoxy)phenoxy]-2,3-dihydro-1H-1,3-benzodiazol-2-one] |  | cellular activity (TRIM24(PHD-bromo)): no cellular activity
CCCOc1cc(OCCCCN(C)C)cc(Oc2cc3c(cc2NS(=O)(=O)c2ccc(OC)c(OC)c2)n(C)c(=O)n3C)c1 [Compound 8i, N-(6-{3-[4-(dimethylamino)butoxy]-5-propoxyphenoxy}-1,3-dimethyl-2-oxo-2,3-dihydro-1H-1,3-benzodiazol-5-yl)-3,4-dimethoxybenzene-1-sulfonamide] |  | interactions against 26 other bromodomains (panel of 32 bromodomains): No interactions were detected

Second part, led by results:

ligand efficiency (LE) (bromodomain of TRIM24) | Structure (SMILES) | other results
0.23 | COc1ccc(S(=O)(=O)Nc2cc3c(cc2Oc2cccc(OCc4ccccc4)c2)n(C)c(=O)n3C)cc1OC [Compound 7b, N-{6-[3-(benzyloxy)phenoxy]-1,3-dimethyl-2-oxo-2,3-dihydro-1H-1,3-benzodiazol-5-yl}-3,4-dimethoxybenzene-1-sulfonamide] | CACO-2 flux from the apical to basolateral side (Papp) [1]: 21 Papp×10^−6 cm·s^−1
0.27 | CCCOc1cccc(Oc2cc3c(cc2NS(=O)(=O)c2ccc(OC)c(OC)c2)n(C)c(=O)n3C)c1 [Compound 7e, N-[1,3-dimethyl-2-oxo-6-(3-propoxyphenoxy)-2,3-dihydro-1H-1,3-benzodiazol-5-yl]-3,4-dimethoxybenzene-1-sulfonamide] | 
